Measurements reported in patent US20220160824A1, “COMPOUNDS FOR USE IN THE TREATMENT OF PARKINSON'S DISEASE” (UNIVERSITY OF THE WITWATERSRAND, JOHANNESBURG, priority 2018, published 2022).

Legend:
HEK293 cells = assay: MTT cell viability assay, HEK293 cells treated with α-Synuclein; assay type: cell-based, human; conditions: for cell viability after α-Synuclein treatment: 200 nM and 500 nM
Source text: The effects of treatment of cells with a specific substance or protein on cell viability can be determined by the MTT (3-(4,5-dimethylthiazol-2-yl)-2,5-diphenyltetrazolium bromide) assay (Riss et al., 2016). MTT is a tetrazolium salt that is yellow in colour that is converted to the purple formazan crystals by the mitochondrial enzyme succinate dehydrogenase (Stockert et al., 2012). The succinate dehydrogenase is only active in viable cells and therefore only viable cells will convert MTT to formazan (Stockert et al., 2012). The MTT assay was chosen over other cell viability assays, such as the ATP assay, the resoazurin reduction assay and the protease viability marker assay, due to its high throughput screening. For this study, HEK293 cells were first seeded at 1.4×10^4 cells per well in a 24-well plate while SH-SY5Y cells were seeded at 1.8×10^4 due to a slower growth rate. The cells were then incubated overnight to allow reattachment. Cells were then treated with 200 nM and 500 nM α-Synuclein, in order to induce a PD-like state. Following treatment, the cells were incubated for 48 hours to determine the effects of α-Synuclein on cell viability […]. The known apoptosis inducer, protocatechuic acid (PCA) was used as the positive control. Following incubation, 200 μl of […] was then added to each well and incubated for 2 hours at 37° C. to allow the formation of formazan crystals. The remaining MTT was discarded and the formazan crystals were dissolved by the addition of 200 μl dimethyl sulfoxide (DMSO). The samples were then added to a 96-well plate at 100 μl in duplicates and the absorbance was read at 570 nm using an ELISA plate reader. High absorbance is indicative of a high number of viable cells.
Statistical evaluation of the data was conducted by performing the […] with a confidence interval of 95% and as a result, results were considered significant when the p-value was lower than 0.05 was considered significant (*p<0.05, **p<0.01 and ***p<0.001) (Johnston, 1970).

SH-SY5Y cells = assay: MTT cell viability assay, SH-SY5Y cells treated with α-Synuclein; assay type: cell-based; conditions: for cell viability after α-Synuclein treatment: 200 nM and 500 nM
Source text: The HEK293 cell line was used as it is commonly used in Parkinson's disease (PD) research (Schlachetzki et al., 2013). The cell culture media was made up from Dulbecco's Modified Eagle Medium (DMEM) (Hyclone) and Ham's F12 with a ratio of 1:1. The mixture was supplement with 1% penicillin/streptomycin (P/S) and 15% foetal bovine serum […] to create a supplemented media that will provide the cells with essential nutrients that include growth factors and P/S to prevent contamination with bacteria and fungi. The nutrient media was renewed when it was required. The cells were cultured at in an incubator, that maintains the humidity, pH, at 37° C. and 5% CO2 atmospheric composition to mimic in vivo conditions. Once the cells reached a confluency of 80%, they were passaged by washing with phosphate-buffered saline (PBS) followed by resuspension by the addition of trypsin-EDTA. Once the cells were re-suspended media was added to inactivate the trypsin and the cell suspension was diluted into a new flask. Fresh media was added to both flasks. Both transfected and non-transfected cells were harvested for further applications. […] SH-SY5Y cells were also received after transfection was confirmed. The cells were maintained in the same conditions as the HEK293 cells. The SH-SY5Y cells were used for the […] cell viability assay. LRP::FLAG overexpressing HEK293 cells in the presence of 1-Methyl-4-phenylpyridinium iodide (MPP+), a PD inducer, was also investigated. Late stage colorectal carcinoma cells (DLD-1) cells were used for certain confocal microscopy studies with parkin protein.
The effects of treatment of cells with a specific substance or protein on cell viability can be determined by the MTT (3-(4,5-dimethylthiazol-2-yl)-2,5-diphenyltetrazolium bromide) assay (Riss et al., 2016). […] The samples were then added to a 96-well plate at 100 μl in duplicates and the absorbance was read at 570 nm using an ELISA plate reader. High absorbance is indicative of a high number of viable cells. […]

[1] = biological target: 37 kDa/67 kDa laminin receptor precursor/high affinity laminin receptor (LRP/LR) (human) (UniProt P08865); assay: cell-based or functional assay

Chain of parkin (O60260 whole entry): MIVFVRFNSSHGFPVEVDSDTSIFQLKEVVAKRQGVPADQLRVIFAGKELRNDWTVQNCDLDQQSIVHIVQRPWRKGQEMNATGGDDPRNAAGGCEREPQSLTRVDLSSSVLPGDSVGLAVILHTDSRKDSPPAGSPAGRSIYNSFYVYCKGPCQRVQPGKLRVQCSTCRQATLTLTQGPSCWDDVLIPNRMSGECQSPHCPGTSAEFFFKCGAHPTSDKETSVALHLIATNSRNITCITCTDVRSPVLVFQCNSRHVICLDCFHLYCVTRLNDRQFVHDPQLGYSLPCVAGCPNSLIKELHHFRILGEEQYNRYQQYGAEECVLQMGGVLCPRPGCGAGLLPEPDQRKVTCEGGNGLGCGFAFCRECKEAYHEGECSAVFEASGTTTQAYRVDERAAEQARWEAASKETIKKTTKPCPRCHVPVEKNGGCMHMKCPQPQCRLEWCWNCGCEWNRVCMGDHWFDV

O=C(O)c1ccc(O)c(O)c1 [PCA, protocatechuic acid]
cell viability with positive control (HEK293 cells; HEK293 transfected and non-transfected cell lines): significant decrease
cell viability with positive control (SH-SY5Y cells; SH-SY5Y transfected and non-transfected cell lines): significant decrease

parkin (from UniProt O60260 1-465) (enzyme)
percent of LRP colocalizing with parkin, confocal microscopy, DLD-1 cells overexpressing LRP::FLAG (total LRP stained) [1]: 22%
percent of LRP/LR colocalizing with parkin, confocal microscopy, DLD-1 cells [1]: 54%
percent of parkin colocalizing with LRP, confocal microscopy, DLD-1 cells overexpressing LRP::FLAG (total LRP stained) [1]: 99%
percent of parkin colocalizing with LRP/LR, confocal microscopy, DLD-1 cells [1]: 59%

α-Synuclein
cell viability after α-Synuclein treatment (HEK293 cells; HEK293 non-transfected cells, 48 hours): decreased significantly
cell viability after α-Synuclein treatment (HEK293 cells; LRP::FLAG overexpressing and non-transfected HEK293 cells): slight decrease
cell viability after α-Synuclein treatment (SH-SY5Y cells; LRP::FLAG overexpressing and non-transfected SH-SY5Y cells): no decrease
cell viability after α-Synuclein treatment (SH-SY5Y cells; SH-SY5Y non-transfected cells, 48 hours): no significant increase or decrease
